Measurements: patent US12427183B2, “Methods of treating cancer, infectious disease, and autoimmune disease using chemokines” (New York Society for the Relief of the Ruptured and …, priority 2016, dated 2025)

Tests used:
PI3Kδ = PI3Kδ (Homo sapiens, UniProt O00329); settings: at the concentration used (10 μM)
CXCR3 = CXCR3 inhibition during chemokine-potentiated TLR9 activation of pDCs, IFN-α ELISA; type: cell-based, human; settings: AMG487 0.1, 1 or 10 μM, CpG 0.25 μM, 24 hours
Method: Purified pDCs from HDs were cultured in media alone (control), with either a CpG TLR9 agonist (0.25 μM) or with CpG and either CXCL4 or CXCL10 (both at 10 μg/ml) alone or in the presence of the CXCR3 inhibitor AMG487 at 0, 0.1, 1 or 10 μM for 24 hours. IFN-α was quantified in the supernatants by ELISA.

Sequence of PI3Kδ (O00329 whole entry): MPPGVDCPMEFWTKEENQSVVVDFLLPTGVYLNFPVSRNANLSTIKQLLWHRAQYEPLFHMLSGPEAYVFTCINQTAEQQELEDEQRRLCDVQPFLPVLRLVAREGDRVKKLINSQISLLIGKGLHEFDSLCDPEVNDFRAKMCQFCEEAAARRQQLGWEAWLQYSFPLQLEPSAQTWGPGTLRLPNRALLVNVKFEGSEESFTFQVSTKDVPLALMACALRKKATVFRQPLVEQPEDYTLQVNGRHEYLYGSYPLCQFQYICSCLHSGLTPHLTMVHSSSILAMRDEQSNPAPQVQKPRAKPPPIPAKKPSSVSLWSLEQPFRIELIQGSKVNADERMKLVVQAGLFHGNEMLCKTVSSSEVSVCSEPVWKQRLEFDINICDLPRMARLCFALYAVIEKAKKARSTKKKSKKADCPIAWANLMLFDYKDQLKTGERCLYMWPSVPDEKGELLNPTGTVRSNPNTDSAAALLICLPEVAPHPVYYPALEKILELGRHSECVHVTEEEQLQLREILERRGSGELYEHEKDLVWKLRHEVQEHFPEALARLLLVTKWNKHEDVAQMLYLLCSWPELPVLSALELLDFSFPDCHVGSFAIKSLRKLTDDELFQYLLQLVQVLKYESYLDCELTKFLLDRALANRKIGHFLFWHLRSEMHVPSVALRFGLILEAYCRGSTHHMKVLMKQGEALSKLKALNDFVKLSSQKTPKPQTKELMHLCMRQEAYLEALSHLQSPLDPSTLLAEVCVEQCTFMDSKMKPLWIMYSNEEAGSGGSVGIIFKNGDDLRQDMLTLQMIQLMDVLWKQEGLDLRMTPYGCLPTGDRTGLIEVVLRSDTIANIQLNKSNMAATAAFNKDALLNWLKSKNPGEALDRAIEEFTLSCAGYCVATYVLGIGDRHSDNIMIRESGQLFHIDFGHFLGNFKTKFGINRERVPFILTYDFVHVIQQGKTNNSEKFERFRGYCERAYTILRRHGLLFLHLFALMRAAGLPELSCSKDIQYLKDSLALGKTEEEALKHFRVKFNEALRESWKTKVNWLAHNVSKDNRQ
Sequence of PI3Kδ (P27986 whole entry partner): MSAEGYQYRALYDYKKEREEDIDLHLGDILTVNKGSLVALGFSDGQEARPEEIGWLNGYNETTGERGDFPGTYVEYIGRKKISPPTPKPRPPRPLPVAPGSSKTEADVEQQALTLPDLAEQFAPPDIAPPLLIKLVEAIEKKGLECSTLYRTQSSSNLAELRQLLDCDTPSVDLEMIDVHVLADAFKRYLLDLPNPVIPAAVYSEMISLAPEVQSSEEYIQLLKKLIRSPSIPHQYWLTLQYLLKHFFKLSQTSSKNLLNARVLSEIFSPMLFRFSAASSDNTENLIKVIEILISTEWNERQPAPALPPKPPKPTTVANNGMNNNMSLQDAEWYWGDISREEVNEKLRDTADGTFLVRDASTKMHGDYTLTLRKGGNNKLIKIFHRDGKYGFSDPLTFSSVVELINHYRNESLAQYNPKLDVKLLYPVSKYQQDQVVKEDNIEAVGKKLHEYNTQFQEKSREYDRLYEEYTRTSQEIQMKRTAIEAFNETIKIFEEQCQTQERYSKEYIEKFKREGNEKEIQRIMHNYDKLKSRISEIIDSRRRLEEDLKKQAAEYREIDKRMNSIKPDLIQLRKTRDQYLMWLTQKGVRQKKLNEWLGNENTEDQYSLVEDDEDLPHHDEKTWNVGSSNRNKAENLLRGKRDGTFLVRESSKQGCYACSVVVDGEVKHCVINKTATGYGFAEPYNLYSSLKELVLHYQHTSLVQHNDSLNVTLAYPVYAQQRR

Row | SMILES | cell viability of pDCs from HDs (PI3Kδ) | effect of CXCR3 inhibition on the activation of TLR9 by CXCL4 in pDCs (CXCR3; CXCL4 10 μg/ml) | effect of CXCR3 inhibition on the activation of TLR9 by CXCL10 in pDCs (CXCR3; CXCL10 10 μg/ml)
1 | CC[C@H](Nc1ncnc2[nH]cnc12)c1nc2cccc(F)c2c(=O)n1-c1ccccc1 [CAL-101] | without impacting | – | –
2 | CCOc1ccc(-n2c([C@@H](C)N(Cc3cccnc3)C(=O)Cc3ccc(OC(F)(F)F)cc3)nc3ncccc3c2=O)cc1 [AMG487] | – | no effect | no effect
